Experimental data: US8008291B2 (Mimetica Pty Ltd, priority 2008, dated 2011)

Target: T1, human MC5R (hMC5R) (Homo sapiens, UniProt P33032)
T1 construct: purchased Perkin Elmer RBXMC5M400UA
Assay: Human MC5R radioligand binding assay (membranes, [125I] NDP-MSH displacement)
Details: hMC5R binding; tested as trifluoroacetate or hydrochloride salts, or free bases; read-out: MC5R radioligand IC50
Outline: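 Frozen human MC5R membranes incubated with test compound and in-house iodogen-labeled, HPLC-purified [125I]NDP-MSH for 1 hr at 37° C. Binding measured as displacement of the radioligand.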

T1 sequence (P33032 whole entry): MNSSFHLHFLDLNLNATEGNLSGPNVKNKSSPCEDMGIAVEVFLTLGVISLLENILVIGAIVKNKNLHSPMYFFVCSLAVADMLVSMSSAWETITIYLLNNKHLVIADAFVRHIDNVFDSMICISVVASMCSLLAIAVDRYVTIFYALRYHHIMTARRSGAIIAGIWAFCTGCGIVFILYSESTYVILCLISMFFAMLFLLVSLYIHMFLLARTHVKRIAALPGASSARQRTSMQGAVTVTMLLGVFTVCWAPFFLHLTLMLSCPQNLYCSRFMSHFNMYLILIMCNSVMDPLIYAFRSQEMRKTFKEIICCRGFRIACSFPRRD

IC50 [nM] | SMILES
< 10000 | Cc1c(C(=O)NC[C@@H]2CCN(CC(c3ccccc3)c3ccccc3)C(=O)[C@H](CCCN)N2)cnn1-c1ccccc1 [Compound 241, N-(((3S,5S)-3-(3-aminopropyl)-1-(2,2-diphenylethyl)-2-oxo-1,4-diazepan-5-yl)methyl)-5-methyl-1-phenyl-1H-pyrazole-4-carboxamide]
< 100 | O=C(NC[C@@H]1CCN(Cc2cc(Cl)cc(Cl)c2)C(=O)[C@H](CCN2CCCCC2)N1)c1ccc2cc(Cl)ccc2c1 [Compound 467, 6-chloro-N-(((3S,5S)-1-(3,5-dichlorobenzyl)-2-oxo-3-(2-(piperidin-1-yl)ethyl)-1,4-diazepan-5-yl)methyl)-2-naphthamide]
< 1000 | C=CCOC(CN1CC[C@@H](CNC(=O)c2ccc3ccccc3c2)N[C@@H](CCCNC(=N)N)C1=O)c1ccccc1 (stereo partly drawn) [Compound 292, N-(((3S,5S)-1-(2-(allyloxy)-2-phenylethyl)-3-(3-guanidinopropyl)-2-oxo-1,4-diazepan-5-yl)methyl)-2-naphthamide]
< 10 | CC[C@@H](CN1CC[C@@H](CNC(=O)c2ccc3cc(Cl)ccc3c2)N[C@@H](CCN2CCCCC2)C1=O)c1ccccc1 [Compound 526, 6-chloro-N-(((3S,5S)-2-oxo-1-((R)-2-phenylbutyl)-3-(2-(piperidin-1-yl)ethyl)-1,4-diazepan-5-yl)methyl)-2-naphthamide]
< 100 | CC(C)c1ccc(/C=C/C(=O)NC[C@@H]2CCN(CC(c3ccccc3)c3ccccc3)C(=O)[C@H](CCN3CCCCC3)N2)cc1 [Compound 396, (E)-N-(((3S,5S)-1-(2,2-diphenylethyl)-2-oxo-3-(2-(piperidin-1-yl)ethyl)-1,4-diazepan-5-yl)methyl)-3-(4-isopropylphenyl)acrylamide]
< 100 | CCC(CC)CN1CC[C@@H](CNC(=O)c2ccc3cc(F)ccc3c2)N[C@@H](CCN2CCCCC2)C1=O [Compound 372, N-(((3S,5S)-1-(2-ethylbutyl)-2-oxo-3-(2-(piperidin-1-yl)ethyl)-1,4-diazepan-5-yl)methyl)-6-fluoro-2-naphthamide]
< 100 | NCC[C@@H]1N[C@H](CNC(=O)c2ccc3cc(Cl)ccc3c2)CCN(Cc2ccc(Cl)cc2Cl)C1=O [Compound 507, N-(((3S,5S)-3-(2-aminoethyl)-1-(2,4-dichlorobenzyl)-2-oxo-1,4-diazepan-5-yl)methyl)-6-chloro-2-naphthamide]
< 1000 | NCC[C@@H]1N[C@H](CNC(=O)C=Cc2ccccc2)CCN(CC(c2ccccc2)c2ccccc2)C1=O [Compound 279, N-(((3S,5S)-3-(2-aminoethyl)-1-(2,2-diphenylethyl)-2-oxo-1,4-diazepan-5-yl)methyl)cinnamamide]
< 10000 | CS(=O)(=O)NCC[C@@H]1N[C@H](CNC(=O)c2ccc(Cl)c(Cl)c2)CCN(Cc2ccc(Cl)cc2Cl)C1=O [Compound 504, 3,4-dichloro-N-(((3S,5S)-1-(2,4-dichlorobenzyl)-3-(2-(methylsulfonamido)ethyl)-2-oxo-1,4-diazepan-5-yl)methyl)benzamide]
< 10000 | NCCC[C@@H]1N[C@H](CNC(=O)c2ccc3ccccc3c2)CCN(Cc2ccc(Cl)c(Cl)c2)C1=O [Compound 320, N-(((3S,5S)-3-(3-aminopropyl)-1-(3,4-dichlorobenzyl)-2-oxo-1,4-diazepan-5-yl)methyl)-2-naphthamide]
< 10000 | CC(=O)N[C@H](CN1CC[C@@H](CNC(=O)c2ccc3ccccc3c2)N[C@@H](CCCNC(=N)N)C1=O)c1ccccc1 [Compound 265, N-(((3S,5S)-1-((S)-2-acetamido-2-phenylethyl)-3-(3-guanidinopropyl)-2-oxo-1,4-diazepan-5-yl)methyl)-2-naphthamide]
< 10000 | N=C(N)NCCC[C@@H]1N[C@H](CNC(=O)c2ccc3ccccc3c2)CCN(C[C@H](NC(=O)c2ccccc2)c2ccccc2)C1=O [Compound 288, N-(((3S,5S)-1-((R)-2-benzamido-2-phenylethyl)-3-(3-guanidinopropyl)-2-oxo-1,4-diazepan-5-yl)methyl)-2-naphthamide]
< 10000 | Cc1ccc(S(=O)(=O)NCC[C@@H]2N[C@H](CNC(=O)c3ccc(Cl)c(Cl)c3)CCN(Cc3ccc(Cl)cc3Cl)C2=O)cc1 [Compound 505, 3,4-dichloro-N-(((3S,5S)-1-(2,4-dichlorobenzyl)-3-(2-(4-methylphenylsulfonamido)ethyl)-2-oxo-1,4-diazepan-5-yl)methyl)benzamide]
< 1000 | CC(C)NCC[C@@H]1N[C@H](CNC(=O)c2ccc3ccccc3c2)CCN(CC(c2ccccc2)c2ccccc2)C1=O [Compound 382, N-(((3S,5S)-1-(2,2-diphenylethyl)-3-(2-(isopropylamino)ethyl)-2-oxo-1,4-diazepan-5-yl)methyl)-2-naphthamide]
< 100 | O=C(NC[C@@H]1CCN(CC(c2ccccc2)c2ccccc2)C(=O)[C@H](CCN2CCCC2)N1)c1ccc2ccccc2c1 [Compound 367, N-(((3S,5S)-1-(2,2-diphenylethyl)-2-oxo-3-(2-(pyrrolidin-1-yl)ethyl)-1,4-diazepan-5-yl)methyl)-2-naphthamide]
< 100 | C[C@@H](C(c1ccccc1)c1ccccc1)N1CC[C@@H](CNC(=O)c2ccc3ccccc3c2)N[C@@H](CCCNC(=N)N)C1=O [Compound 203, N-(((3S,5S)-1-((S)-1,1-diphenylpropan-2-yl)-3-(3-guanidinopropyl)-2-oxo-1,4-diazepan-5-yl)methyl)-2-naphthamide]
< 1000 | CCC(CC)CN1CC[C@@H](CNC(=O)/C=C/c2ccc(Cl)cc2)N[C@@H](CCN)C1=O [Compound 330, (E)-N-(((3S,5S)-3-(2-aminoethyl)-1-(2-ethylbutyl)-2-oxo-1,4-diazepan-5-yl)methyl)-3-(4-chlorophenyl)acrylamide]
< 10000 | NCCC[C@@H]1N[C@H](CNC(=O)c2ccc3ccccc3c2)CCN(Cc2cccc(Cl)c2)C1=O [Compound 341, N-(((3S,5S)-3-(3-aminopropyl)-1-(3-chlorobenzyl)-2-oxo-1,4-diazepan-5-yl)methyl)-2-naphthamide]
< 10000 | N=C(N)NCCC[C@@H]1N[C@H](CNC(=O)c2cc3ccccc3o2)CCN(CC(c2ccccc2)c2ccccc2)C1=O [Compound 132, N-(((3S,5S)-1-(2,2-diphenylethyl)-3-(3-guanidinopropyl)-2-oxo-1,4-diazepan-5-yl)methyl)benzofuran-2-carboxamide]
< 100 | CC1CCC(C)N1CC[C@@H]1N[C@H](CNC(=O)/C=C/c2ccc(Cl)cc2)CCN(CC(c2ccccc2)c2ccccc2)C1=O (stereo partly drawn) [Compound 405, (E)-3-(4-chlorophenyl)-N-(((3S,5S)-3-(2-(2,5-dimethylpyrrolidin-1-yl)ethyl)-1-(2,2-diphenylethyl)-2-oxo-1,4-diazepan-5-yl)methyl)acrylamide]
< 100 | CC[C@H](CN1CCC(CNC(=O)c2ccc3cc(Cl)ccc3c2)NC(C2CCNCC2)C1=O)c1ccccc1 (stereo partly drawn) [Compound 447, (S)-6-chloro-N-((2-oxo-1-(2-phenylbutyl)-3-(piperidin-4-yl)-1,4-diazepan-5-yl)methyl)-2-naphthamide]
< 100 | O=C(C=Cc1ccccc1)NC[C@@H]1CCN(CC(c2ccccc2)c2ccccc2)C(=O)[C@H](CCCN2CCCCC2)N1 [Compound 266, N-(((3S,5S)-1-(2,2-diphenylethyl)-2-oxo-3-(3-(piperidin-1-yl)propyl)-1,4-diazepan-5-yl)methyl)cinnamamide]
< 100 | O=C(/C=C/c1ccc(Cl)cc1)NC[C@@H]1CCN(CC(c2ccccc2)c2ccccc2)C(=O)[C@H](CCCN2CCCC2)N1 [Compound 258, (E)-3-(4-chlorophenyl)-N-(((3S,5S)-1-(2,2-diphenylethyl)-2-oxo-3-(3-(pyrrolidin-1-yl)propyl)-1,4-diazepan-5-yl)methyl)acrylamide]
< 1000 | Cc1ccc(/C=C/C(=O)NC[C@@H]2CCN(CC(c3ccccc3)c3ccccc3)C(=O)[C@H](CCN)N2)c(C)c1 [Compound 399, (E)-N-(((3S,5S)-3-(2-aminoethyl)-1-(2,2-diphenylethyl)-2-oxo-1,4-diazepan-5-yl)methyl)-3-(2,4-dimethylphenyl)acrylamide]
< 100 | CC[C@H](CN1CC[C@@H](CNC(=O)c2ccc(Cl)c(Cl)c2)N[C@@H](CCNC(C)(C)C)C1=O)c1ccccc1 [Compound 430, N-(((3S,5S)-3-(2-(tert-butylamino)ethyl)-2-oxo-1-((S)-2-phenylbutyl)-1,4-diazepan-5-yl)methyl)-3,4-dichlorobenzamide]
< 100 | O=C(NC[C@@H]1CCN(CC(c2ccccc2)c2ccccc2)C(=O)[C@H](CN2CCCCC2)N1)c1ccc2ccccc2c1 [Compound 275, N-(((3S,5S)-1-(2,2-diphenylethyl)-2-oxo-3-(piperidin-1-ylmethyl)-1,4-diazepan-5-yl)methyl)-2-naphthamide]
< 100 | O=C(NC[C@@H]1CCN(Cc2ccc(Cl)cc2Cl)C(=O)[C@H](CCN2CCCCC2)N1)c1ccc2cc(Cl)ccc2c1 [Compound 508, 6-chloro-N-(((3S,5S)-1-(2,4-dichlorobenzyl)-2-oxo-3-(2-(piperidin-1-yl)ethyl)-1,4-diazepan-5-yl)methyl)-2-naphthamide]
< 1000 | N=C(N)NCCC[C@@H]1N[C@H](CNC(=O)c2ccc3ccccc3c2)CCN(CC2CCCCC2)C1=O [Compound 201, N-(((3S,5S)-1-(cyclohexylmethyl)-3-(3-guanidinopropyl)-2-oxo-1,4-diazepan-5-yl)methyl)-2-naphthamide]
< 1000 | NCCC[C@@H]1N[C@H](CNC(=O)c2cc3ccccc3[nH]2)CCN(CC(c2ccccc2)c2ccccc2)C1=O [Compound 107, N-(((3S,5S)-3-(3-aminopropyl)-1-(2,2-diphenylethyl)-2-oxo-1,4-diazepan-5-yl)methyl)-1H-indole-2-carboxamide]
< 1000 | C[C@H](C(c1ccccc1)c1ccccc1)N1CC[C@@H](CNC(=O)c2ccc3ccccc3c2)N[C@@H](CCCNC(=N)N)C1=O [Compound 204, N-(((3S,5S)-1-((R)-1,1-diphenylpropan-2-yl)-3-(3-guanidinopropyl)-2-oxo-1,4-diazepan-5-yl)methyl)-2-naphthamide]
